Experimental data: patent US11878074B2, “Methods of use of emulsion formulations of an NK-1 receptor antagonist” (Heron Therapeutics, Inc., priority 2016, dated 2024)

Experiment: Pharmacokinetics of aprepitant emulsion, intravenous injection, plasma LC-MS/MS
Assay type: in vivo, Sprague-Dawley rats
Details: rat, i.v., equivalent to 14 mg/kg aprepitant, by the 3-hour time point
Procedure: Blood from all rats was collected at the appropriate time intervals and processed to plasma by centrifugation. Plasma samples were analyzed by LC-MS/MS for aprepitant and fosaprepitant, as appropriate. […] The curves indicate the initial aprepitant level reached immediately after injection of the aprepitant emulsion was almost 3 times higher than the initial aprepitant level reached immediately after injection of the fosaprepitant solution.

Plasma levels of aprepitant, emulsion versus fosaprepitant solution: essentially the same
Structure (SMILES): C[C@@H](O[C@H]1OCCN(Cc2nc(O)n(P(=O)(O)O)n2)[C@H]1c1ccc(F)cc1)c1cc(C(F)(F)F)cc(C(F)(F)F)c1 [fosaprepitant]
